From US7368433B2, “Peptides and methods for the control of obesity” (University of Florida Research Foundation, Inc., priority 2002, dated 2008)
Where two headings read alike, the source gives them in different places. One block for each compound: values may come before it.

Tests used:
mMC4R = molecular target: T1, mMC4R (Mus musculus, UniProt P56450); assay: Functional bioassay (CRE/β-galactosidase reporter), agonist activity at mMC4R; format: cell-based; details: HEK-293 cells stably expressing receptor; ± SEM
T1 construct: expressed in transfected cells; host or cells: HEK-293
Description: (§1) For cell culture and transfection, briefly, HEK-293 cells were maintained in Dulbecco's modified Eagle's medium (DMEM) with 10% fetal calf serum and seeded 1 day prior to transfection at 1 to 2×10^6 cell/100-mm dish. Melanocortin receptor DNA in the pcDNA3 expression vector (20 μg) were transfected using the calcium phosphate method. Stable receptor populations were generated using G418 selection (1 mg/mL) for subsequent bioassay analysis.
(§2) In the functional bioassay studies, HEK-293 cells stably expressing the melanocortin receptors were transfected with 4 μg CRE/β-galactosidase reporter gene as previously described in the literature. Briefly, 5,000 to 15,000 post transfection cells were plated into 96 well Primera plates (Falcon) and incubated overnight. […] The sample absorbance, OD405, was measured using a 96 well plate reader (Molecular Devices). The relative protein was determined by adding 200 μL 1:5 dilution Bio Rad G250 protein dye:water to the 10 μL cell lysate sample taken previously, and the OD595 was measured on a 96 well plate reader (Molecular Devices). […]
(§3) The pA2 values were generated using the Schild analysis method [Schild, H. O. pA2, A New Scale for the Measurement of Drug Antagonism. […] EC50 and pA2 estimates, and their associated standard errors, were determined by fitting the data to a nonlinear least-squares analysis using the PRISM program (v3.0, GraphPad Inc.).

mMC5R = molecular target: T2, mMC5R (Mus musculus, UniProt P41149); assay: Functional bioassay (CRE/β-galactosidase reporter), agonist activity at mMC5R; format: cell-based; details: HEK-293 cells stably expressing receptor; ± SEM
T2 construct: expressed in transfected cells; host or cells: HEK-293
Description: as §1, §2, §3

human MC4R = molecular target: T3, human MC4R (Homo sapiens, UniProt P32245); details: literature (Yang et al 2000; Danho et al); read-out: agonist activity at the human MC4 receptor; cited from earlier work
T3 construct: expressed in transfected cells; host or cells: HEK-293

hMC3R = hMC3R (Homo sapiens, UniProt P41968); details: literature (Danho et al); cited from earlier work
food intake = details: central / ICV administration to rodents, literature, cited from earlier work

T1 sequence (P56450 whole entry): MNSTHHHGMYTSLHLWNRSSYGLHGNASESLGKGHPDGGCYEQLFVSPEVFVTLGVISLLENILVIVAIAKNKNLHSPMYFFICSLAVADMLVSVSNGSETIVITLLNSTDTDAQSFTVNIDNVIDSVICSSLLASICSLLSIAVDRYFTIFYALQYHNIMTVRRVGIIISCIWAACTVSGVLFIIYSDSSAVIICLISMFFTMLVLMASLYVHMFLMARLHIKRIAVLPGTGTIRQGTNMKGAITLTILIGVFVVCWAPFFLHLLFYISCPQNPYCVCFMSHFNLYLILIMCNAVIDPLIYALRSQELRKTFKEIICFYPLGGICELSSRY
T2 sequence (P41149 whole entry): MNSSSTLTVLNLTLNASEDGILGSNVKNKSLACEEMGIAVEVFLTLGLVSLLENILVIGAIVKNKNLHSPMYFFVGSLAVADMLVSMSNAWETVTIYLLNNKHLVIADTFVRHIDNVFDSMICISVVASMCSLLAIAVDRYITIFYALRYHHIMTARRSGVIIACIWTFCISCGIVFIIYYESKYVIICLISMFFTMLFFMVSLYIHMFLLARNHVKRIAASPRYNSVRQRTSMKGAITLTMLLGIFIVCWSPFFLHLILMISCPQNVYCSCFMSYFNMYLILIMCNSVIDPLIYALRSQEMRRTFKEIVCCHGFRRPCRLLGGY
T3 sequence (P32245 whole entry): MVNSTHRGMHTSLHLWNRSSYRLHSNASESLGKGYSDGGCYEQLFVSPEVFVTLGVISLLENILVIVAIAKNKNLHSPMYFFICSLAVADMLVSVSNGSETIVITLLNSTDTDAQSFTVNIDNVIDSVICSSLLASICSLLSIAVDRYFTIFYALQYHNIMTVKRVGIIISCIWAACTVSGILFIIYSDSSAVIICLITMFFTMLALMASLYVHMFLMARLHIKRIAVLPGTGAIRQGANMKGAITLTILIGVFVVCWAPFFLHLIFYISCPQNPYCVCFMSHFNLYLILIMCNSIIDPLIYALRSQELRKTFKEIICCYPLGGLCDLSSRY
Sequence of hMC3R (P41968 whole entry): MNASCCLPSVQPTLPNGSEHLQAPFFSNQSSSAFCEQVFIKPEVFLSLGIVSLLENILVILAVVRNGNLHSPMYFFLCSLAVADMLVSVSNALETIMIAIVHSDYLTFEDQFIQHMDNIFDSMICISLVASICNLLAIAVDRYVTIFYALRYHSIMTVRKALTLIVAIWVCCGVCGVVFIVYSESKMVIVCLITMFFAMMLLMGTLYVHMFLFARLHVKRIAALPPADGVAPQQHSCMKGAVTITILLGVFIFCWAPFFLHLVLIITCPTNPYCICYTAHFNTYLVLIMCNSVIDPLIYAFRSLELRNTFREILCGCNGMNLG

- EC50 (mMC4R): 17.2 ± 2.78 nM
- EC50 (mMC5R): 3.96 ± 0.94 nM
Compound: CC(=O)N[C@@H](Cc1c[nH]cn1)C(=O)N[C@H](Cc1ccccc1)C(=O)N[C@@H](CCCNC(=N)N)C(=O)N[C@@H](Cc1c[nH]c2ccccc12)C(N)=O [JRH279-31, Ac-His-DPhe-Arg-Trp-NH2]

Compound: c[Asp-(racemic)Atc-DPhe-Arg-Trp-Lys]-NH2
- EC50 (human MC4R): 65 nM
- agonist activity at the hMC3R (in words) (hMC3R): only slight agonist activity

Compound: Ac-Nle-c[Asp-His-DNal(2′)-Arg-Trp-Lys]-NH2 [SHU91 19]
- effect on food intake (food intake): increased food intake
- effect on food intake (food intake; listed as SHU-9119): can induce hyperphagia
